# In PubChem BioAssay AID2060894 (Molecular Pharmacology Branch, DTP, NCI, 2025):
# System: K12877-001-R-J1-PDC complex spheroid viability
# Assay: Anticancer human tumor K12877-001-R-J1-PDC patient-derived lung adenocarcinoma cell line growth inhibition [RAS]
# Conditions: for IC50: curve of first compound; for viability, T/C: stronger effect = lower value
# Procedure, shortened: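 Agents were tested in combination matrices in half-log decrements from a top concentration at or near clinical Cmax (10 microM if undetermined). Targets were multi-cell spheroids of tumour lines plus HUVEC and MSC stromal cells.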
# [1] = second compound 0.0316 µM, first compound 0.0316 µM
# [2] = second compound 0.0316 µM, first compound 0.1 µM
# [3] = second compound 0.0316 µM, first compound 0.316 µM
# [4] = second compound 0.0316 µM, first compound 1 µM
# [5] = second compound 0.1 µM, first compound 0.0316 µM
# [6] = second compound 0.1 µM, first compound 0.1 µM
# [7] = second compound 0.1 µM, first compound 0.316 µM
# [8] = second compound 0.1 µM, first compound 1 µM
# [9] = second compound 0.316 µM, first compound 0.0316 µM
# [10] = second compound 0.316 µM, first compound 0.1 µM
# [11] = second compound 0.316 µM, first compound 0.316 µM
# [12] = second compound 0.316 µM, first compound 1 µM
# [13] = second compound 1 µM, first compound 0.0316 µM
# [14] = second compound 1 µM, first compound 0.1 µM
# [15] = second compound 1 µM, first compound 0.316 µM
# [16] = second compound 1 µM, first compound 1 µM
# [17] = second compound 3.16 µM, first compound 0.0316 µM
# [18] = second compound 3.16 µM, first compound 0.1 µM
# [19] = second compound 3.16 µM, first compound 0.316 µM
# [20] = second compound 3.16 µM, first compound 1 µM
# [21] = second compound 10 µM, first compound 0.0316 µM
# [22] = second compound 10 µM, first compound 0.1 µM
# [23] = second compound 10 µM, first compound 0.316 µM
# [24] = second compound 10 µM, first compound 1 µM
# [25] = second compound 0.0316 µM, first compound 3.16 µM
# [26] = second compound 0.0316 µM, first compound 10 µM
# [27] = second compound 0.1 µM, first compound 3.16 µM
# [28] = second compound 0.1 µM, first compound 10 µM
# [29] = second compound 0.316 µM, first compound 3.16 µM
# [30] = second compound 0.316 µM, first compound 10 µM
# [31] = second compound 1 µM, first compound 3.16 µM
# [32] = second compound 1 µM, first compound 10 µM
# 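Also: spheroids exposed to agents for one week before readout.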
# 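For viability, T/C in this document: tumour cells co-cultured with HUVEC and mesenchymal stem cells in spheroids.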
smiles,measurement,setting,value
C=CC(=O)Nc1cc(Nc2nccc(-c3cn(C)c4ccccc34)n2)c(OC)cc1N(C)CCN(C)C + C#Cc1c(F)ccc2cc(O)cc(-c3ncc4c(N5CC6CCC(C5)N6)nc(OCC56CCCN5CC(F)C6)nc4c3F)c12,IC50,second compound 0.0316 µM,> 1 µM
same,IC50,second compound 0.1 µM,> 1 µM
same,IC50,second compound 0.316 µM,> 1 µM
same,IC50,second compound 1 µM,> 1 µM
same,IC50,second compound 3.16 µM,> 1 µM
same,IC50,second compound 10 µM,> 1 µM
same,"viability, T/C","second compound 0.0316 µM, first compound 0.00316 µM",95.4%
same,"viability, T/C","second compound 0.0316 µM, first compound 0.01 µM",107%
same,"viability, T/C",[1],108%
same,"viability, T/C",[2],106%
same,"viability, T/C",[3],113%
same,"viability, T/C",[4],94.3%
same,"viability, T/C","second compound 0.1 µM, first compound 0.00316 µM",108%
same,"viability, T/C","second compound 0.1 µM, first compound 0.01 µM",102%
same,"viability, T/C",[5],102%
same,"viability, T/C",[6],102%
same,"viability, T/C",[7],119%
same,"viability, T/C",[8],97.7%
same,"viability, T/C","second compound 0.316 µM, first compound 0.00316 µM",103%
same,"viability, T/C","second compound 0.316 µM, first compound 0.01 µM",108%
same,"viability, T/C",[9],106%
same,"viability, T/C",[10],106%
same,"viability, T/C",[11],108%
same,"viability, T/C",[12],102%
same,"viability, T/C","second compound 1 µM, first compound 0.00316 µM",105%
same,"viability, T/C","second compound 1 µM, first compound 0.01 µM",99.4%
same,"viability, T/C",[13],101%
same,"viability, T/C",[14],115%
same,"viability, T/C",[15],101%
same,"viability, T/C",[16],95.3%
same,"viability, T/C","second compound 3.16 µM, first compound 0.00316 µM",107%
same,"viability, T/C","second compound 3.16 µM, first compound 0.01 µM",100%
same,"viability, T/C",[17],106%
same,"viability, T/C",[18],102%
same,"viability, T/C",[19],87.5%
same,"viability, T/C",[20],95%
same,"viability, T/C","second compound 10 µM, first compound 0.00316 µM",106%
same,"viability, T/C","second compound 10 µM, first compound 0.01 µM",95.1%
same,"viability, T/C",[21],89.1%
same,"viability, T/C",[22],94%
same,"viability, T/C",[23],81.4%
same,"viability, T/C",[24],79.2%
Cc1nc(N2CCC3(CC2)COC(C)C3N)c(CO)nc1Sc1ccnc(N)c1Cl (stereo not drawn) + C#Cc1c(F)ccc2cc(O)cc(-c3ncc4c(N5CC6CCC(C5)N6)nc(OCC56CCCN5CC(F)C6)nc4c3F)c12,IC50,second compound 0.0316 µM,> 10 µM
same,IC50,second compound 0.1 µM,> 10 µM
same,IC50,second compound 0.316 µM,> 10 µM
same,IC50,second compound 1 µM,> 10 µM
same,IC50,second compound 3.16 µM,> 10 µM
same,IC50,second compound 10 µM,> 10 µM
same,"viability, T/C",[1],94.3%
same,"viability, T/C",[2],97%
same,"viability, T/C",[3],99%
same,"viability, T/C",[4],95.1%
same,"viability, T/C",[25],103%
same,"viability, T/C",[26],77.5%
same,"viability, T/C",[5],109%
same,"viability, T/C",[6],110%
same,"viability, T/C",[7],92%
same,"viability, T/C",[8],87.7%
same,"viability, T/C",[27],93.5%
same,"viability, T/C",[28],84.1%
same,"viability, T/C",[9],107%
same,"viability, T/C",[10],98.8%
same,"viability, T/C",[11],91.2%
same,"viability, T/C",[12],92.9%
same,"viability, T/C",[29],78.5%
same,"viability, T/C",[30],65.7%
same,"viability, T/C",[13],101%
same,"viability, T/C",[14],92.5%
same,"viability, T/C",[15],93.1%
same,"viability, T/C",[16],95.7%
same,"viability, T/C",[31],82.9%
same,"viability, T/C",[32],69.5%
same,"viability, T/C",[17],100%
same,"viability, T/C",[18],94%
same,"viability, T/C",[19],92.4%
same,"viability, T/C",[20],79.7%
same,"viability, T/C","second compound 3.16 µM, first compound 3.16 µM",79.7%
same,"viability, T/C","second compound 3.16 µM, first compound 10 µM",69.7%
same,"viability, T/C",[21],93.6%
same,"viability, T/C",[22],86.1%
same,"viability, T/C",[23],83.9%
same,"viability, T/C",[24],83.4%
same,"viability, T/C","second compound 10 µM, first compound 3.16 µM",86.9%
same,"viability, T/C","second compound 10 µM, first compound 10 µM",84.8%
NC1c2ccccc2OC12CCN(c1cnc3c(N4CCCc5ncccc54)n[nH]c3n1)CC2 (stereo not drawn) + C=CC(=O)N1CCN(c2nc(OCC3CCCN3C)nc3c(F)c(-c4nc(N)cc(C)c4C(F)(F)F)c(Cl)cc23)C(C)C1,IC50,second compound 0.00316 µM,> 10 µM
same,IC50,second compound 0.01 µM,8.9 µM
same,IC50,second compound 0.0316 µM,6.88 µM
same,IC50,second compound 0.1 µM,5.24 µM
same,IC50,second compound 0.316 µM,5.89 µM
same,IC50,second compound 1 µM,9.97 µM
same,"viability, T/C","second compound 0.00316 µM, first compound 0.0316 µM",82.2%
same,"viability, T/C","second compound 0.00316 µM, first compound 0.1 µM",89.4%
same,"viability, T/C","second compound 0.00316 µM, first compound 0.316 µM",83.9%
same,"viability, T/C","second compound 0.00316 µM, first compound 1 µM",84.5%
same,"viability, T/C","second compound 0.00316 µM, first compound 3.16 µM",63.4%
same,"viability, T/C","second compound 0.00316 µM, first compound 10 µM",52.7%
same,"viability, T/C","second compound 0.01 µM, first compound 0.0316 µM",82.7%
same,"viability, T/C","second compound 0.01 µM, first compound 0.1 µM",92.4%
same,"viability, T/C","second compound 0.01 µM, first compound 0.316 µM",84.6%
same,"viability, T/C","second compound 0.01 µM, first compound 1 µM",78.1%
same,"viability, T/C","second compound 0.01 µM, first compound 3.16 µM",65.5%
same,"viability, T/C","second compound 0.01 µM, first compound 10 µM",48.2%
same,"viability, T/C",[1],89.8%
same,"viability, T/C",[2],79.6%
same,"viability, T/C",[3],75.4%
same,"viability, T/C",[4],69.3%
same,"viability, T/C",[25],57.5%
same,"viability, T/C",[26],45.9%
same,"viability, T/C",[5],97.3%
same,"viability, T/C",[6],79.3%
same,"viability, T/C",[7],67.4%
same,"viability, T/C",[8],64.5%
same,"viability, T/C",[27],54.7%
same,"viability, T/C",[28],44.4%
same,"viability, T/C",[9],81.5%
same,"viability, T/C",[10],73.5%
same,"viability, T/C",[11],70.3%
same,"viability, T/C",[12],63.4%
same,"viability, T/C",[29],48.9%
same,"viability, T/C",[30],48.9%
same,"viability, T/C",[13],81.9%
same,"viability, T/C",[14],95.9%
same,"viability, T/C",[15],66.7%
same,"viability, T/C",[16],76.7%
same,"viability, T/C",[31],55.5%
same,"viability, T/C",[32],50.7%
CC(Nc1ccc2c(c1)OCCn1cc(N3C(=O)OCC3C(F)F)nc1-2)C(N)=O (stereo not drawn),"viability, T/C",compound 0.0316 µM,91.3% [middle of 4 runs]
same,"viability, T/C",compound 1 µM,69.9% [middle of 4 runs]
